Here are results for 34 molecules from US8586747B2, “3,3-dimethyl tetrahydroquinoline derivatives” (Hoffmann-La Roche Inc., priority 2010, dated 2013).

The subject of the experiment is AMP-activated protein kinase (AMPK). Briefly: ADP Quest assay for AMPK activators. Format: biochemical. The arrangement: key: fold AMPK activation with vs without activator at 30 µM. To be noted: fold of AMPK activation to phosphorylate SAMS peptide without and with an activator at the concentration of 30 µM. The essentials:
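E30, the fold increase in SAMS peptide phosphorylation at 30 µM compound relative to no activator, is derived from kinetic fluorescent detection of ADP (ex 530, em 590 nm). AMPK starts the ATP-containing reaction at room temperature; compounds span […] by 2-fold steps, AMP serves as reference.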
In the case of `CC1(C)Cc2cc(C(=O)O)ccc2NC1c1cccc(C(=O)NS(=O)(=O)C2CC2)c1` (stereo not shown) [Example 176, 2-(3-(Cyclopropylsulfonylcarbamoyl)-phenyl)-3,3-dimethyl-1,2,3,4-tetrahydroquinoline-6-carboxylic acid], the E30 is 1.44.

`CC(C)C(=O)Nc1cc(C2Nc3ccc(C(=O)O)cc3CC2(C)C)ccc1Cl` (stereo not shown) [Example 177, 2-(4-Chloro-3-isobutyramidophenyl)-3,3-dimethyl-1,2,3,4-tetrahydroquinoline-6-carboxylic acid]: the E30 was 1.4.

The molecule `CC(C)C(=O)Nc1ccc(C2Nc3ccc(C(=O)O)cc3CC2(C)C)cc1` (stereo not shown) [Example 178, 2-(4-Isobutyramidophenyl)-3,3-dimethyl-1,2,3,4-tetrahydroquinoline-6-carboxylic acid] had an E30 of 1.36.

For `CC1(C)Cc2cc(C(=O)O)ccc2NC1c1cccc(C(=O)NS(C)(=O)=O)c1` (stereo not shown) [Example 179, 3,3-Dimethyl-2-(3-(methylsulfonylcarbamoyl)-phenyl)-1,2,3,4-tetrahydroquinoline-6-carboxylic acid], the E30 worked out at 1.33.

In the case of `CC1(C)Cc2cc(C(=O)O)ccc2NC1c1ccc(F)c(NC(=O)c2ccccn2)c1` (stereo not shown) [Example 180, 2-(4-Fluoro-3-(picolinamido)-phenyl)-3,3-dimethyl-1,2,3,4-tetrahydroquinoline-6-carboxylic acid], the E30 is 1.32.

Molecule `CC1(C)Cc2cc(C(=O)O)ccc2NC1c1ccc(NS(=O)(=O)c2ccc(F)cc2)cc1` (stereo not shown) [Example 181, 2-(4-(4-Fluorophenylsulfonamido)phenyl)-3,3-dimethyl-1,2,3,4-tetrahydroquinoline-6-carboxylic acid] showed an E30 of 1.31.

Consider `CC1(C)Cc2cc(C(=O)O)ccc2NC1c1ccc(NC(=O)c2ccc(F)cc2)cc1` (stereo not shown) [Example 182, 2-(4-(4-Fluorobenzamido)phenyl)-3,3-dimethyl-1,2,3,4-tetrahydroquinoline-6-carboxylic acid], for which the E30 stood at 1.26.

`Cc1ccc(S(=O)(=O)Nc2ccc(C3Nc4ccc(C(=O)O)cc4CC3(C)C)cc2)cc1` (stereo not shown) [Example 183, 3,3-Dimethyl-2-(4-(4-methylphenylsulfonamido)phenyl)-1,2,3,4-tetrahydroquinoline-6-carboxylic acid]: the E30 is reported as 1.25.

In turn, `CC1(C)Cc2cc(C(=O)O)ccc2NC1c1ccc(F)c(NC(=O)c2ccccc2)c1` (stereo not shown) [Example 184, 2-(3-Benzamido-4-fluorophenyl)-3,3-dimethyl-1,2,3,4-tetrahydroquinoline-6-carboxylic acid] returned an E30 of 1.24.

`CC1(C)Cc2cc(C(=O)O)ccc2NC1c1ccc(NC(=O)c2ccccc2)cc1` (stereo not shown) [Example 185, 2-(4-Benzamidophenyl)-3,3-dimethyl-1,2,3,4-tetrahydroquinoline-6-carboxylic acid] came in with an E30 of 1.22.

For `CC1(C)Cc2cc(C(=O)O)ccc2NC1c1ccc(NC(=O)c2ccccn2)cc1` (stereo not shown) [Example 186, 3,3-Dimethyl-2-(4-(picolinamido)phenyl)-1,2,3,4-tetrahydroquinoline-6-carboxylic acid], the E30 is given as 1.21.

In turn, `CNC(=O)c1cccc(C2Nc3ccc(C(=O)O)cc3CC2(C)C)c1` (stereo not shown) [Example 187, 3,3-Dimethyl-2-(3-(methylcarbamoyl)phenyl)-1,2,3,4-tetrahydroquinoline-6-carboxylic acid] gave an E30 of 1.38.

`CC1(C)Cc2cc(C(=O)O)ccc2NC1c1ccc(F)c(NC(=O)C2CC2)c1` (stereo not shown) [Example 189, 2-(3-(Cyclopropanecarboxamido)-4-fluorophenyl)-3,3-dimethyl-1,2,3,4-tetrahydroquinoline-6-carboxylic acid] returned an E30 of 1.31.

For `CC1(C)Cc2cc(C(=O)O)ccc2NC1c1ccc(F)c(NC(=O)c2ccc(F)cc2Cl)c1` (stereo not shown) [Example 190, 2-(3-(2-Chloro-4-fluorobenzamido)-4-fluorophenyl)-3,3-dimethyl-1,2,3,4-tetrahydroquinoline-6-carboxylic acid], the E30 is 1.3.

The molecule `CC1(C)Cc2cc(C(=O)O)ccc2NC1c1cccc(C(=O)N2CCCCC2)c1` (stereo not shown) [Example 191, 3,3-Dimethyl-2-(3-(piperidine-1-carbonyl)phenyl)-1,2,3,4-tetrahydroquinoline-6-carboxylic acid] came in with an E30 of 1.27.

With `COCCNC(=O)c1cccc(C2Nc3ccc(C(=O)O)cc3CC2(C)C)c1` (stereo not shown) [Example 192, 2-(3-(2-Methoxyethylcarbamoyl)phenyl)-3,3-dimethyl-1,2,3,4-tetrahydroquinoline-6-carboxylic acid], the E30 is 1.27.

The molecule `CC1(C)Cc2cc(C(=O)O)ccc2NC1c1ccc(NC(=O)Cc2ccccc2)cc1` (stereo not shown) [Example 193, 3,3-Dimethyl-2-(4-(2-phenylacetamido)phenyl)-1,2,3,4-tetrahydroquinoline-6-carboxylic acid] yielded an E30 of 1.26.

`CC1(C)Cc2cc(C(=O)O)ccc2NC1c1ccc(F)c(NC(=O)C2CCC2)c1` (stereo not shown) [Example 194, 2-(3-(Cyclobutanecarboxamido)-4-fluorophenyl)-3,3-dimethyl-1,2,3,4-tetrahydroquinoline-6-carboxylic acid] showed an E30 of 1.25.

Turning to `CC1(C)Cc2cc(C(=O)O)ccc2NC1c1ccc(Cl)c(NC(=O)C2CCCCC2)c1` (stereo not shown) [Example 195, 2-(4-Chloro-3-(cyclohexanecarboxamido)phenyl)-3,3-dimethyl-1,2,3,4-tetrahydroquinoline-6-carboxylic acid], the E30 stood at 1.25.

For `CC1(C)Cc2cc(C(=O)O)ccc2NC1c1ccc(F)c(NC(=O)C2CCCC2)c1` (stereo not shown) [Example 196, 2-(3-(Cyclopentanecarboxamido)-4-fluorophenyl)-,3-dimethyl-1,2,3,4-tetrahydroquinoline-6-carboxylic acid], the E30 is listed as 1.25.

The molecule `COC(=O)c1ccc2c(c1)CC(C)(C)C(c1cccc(C(=O)Nc3cnccn3)c1)N2` (stereo not shown) [Example 197, Methyl 3,3-dimethyl-2-(3-(pyrazin-2-ylcarbamoyl)-phenyl)-1,2,3,4-tetrahydroquinoline-6-carboxylate] returned an E30 of 1.22.

In turn, `CC1(C)Cc2cc(C(=O)O)ccc2NC1c1cccc(C(N)=O)c1` (stereo not shown) [Example 200, 2-(3-Carbamoylphenyl)-3,3-dimethyl-1,2,3,4-tetrahydroquinoline-6-carboxylic acid] returned an E30 of 1.58.

In the case of `CC1(C)Cc2cc(C(=O)O)ccc2NC1c1cccc(NS(C)(=O)=O)c1` (stereo not shown) [Example 201, 3,3-Dimethyl-2-(3-(methylsulfonamido)phenyl)-1,2,3,4-tetrahydroquinoline-6-carboxylic acid], the E30 is listed as 1.42.

With `CC1(C)Cc2cc(C(=O)O)ccc2NC1c1cc(Cl)cc(NC(=O)c2ccccc2)c1` (stereo not shown) [Example 202, 2-(3-Benzamido-5-chlorophenyl)-3,3-dimethyl-1,2,3,4-tetrahydroquinoline-6-carboxylic acid], the E30 worked out at 1.22.

In the case of `CN(C)CCNC(=O)c1cccc(C2Nc3ccc(C(=O)O)cc3CC2(C)C)c1` (stereo not shown) [Example 203, 2-(3-(2-(Dimethylamino)ethylcarbamoyl)phenyl)-3,3-dimethyl-1,2,3,4-tetrahydroquinoline-6-carboxylic acid], the E30 is 1.53.

For `CC(=O)Nc1cccc(C2Nc3ccc(C(=O)O)cc3CC2(C)C)c1` (stereo not shown) [Example 204, 2-(3-Acetamidophenyl)-3,3-dimethyl-1,2,3,4-tetrahydroquinoline-6-carboxylic acid], the E30 was 1.4.

Molecule `CCN1CCCC1CNC(=O)c1cccc(C2Nc3ccc(C(=O)O)cc3CC2(C)C)c1` (stereo not shown) [Example 205, 2-(3-((1-Ethylpyrrolidin-2-yl)methylcarbamoyl)phenyl)-3,3-dimethyl-1,2,3,4-tetrahydroquinoline-6-carboxylic acid] had an E30 of 1.38.

Molecule `CC1(C)Cc2cc(C(=O)O)ccc2NC1c1ccc(F)c(NS(=O)(=O)c2cccc(F)c2)c1` (stereo not shown) [Example 206, 2-(4-Fluoro-3-(3-fluorophenylsulfonamido)phenyl)-3,3-dimethyl-1,2,3,4-tetrahydroquinoline-6-carboxylic acid] yielded an E30 of 1.33.

In turn, `CC(C)(C)OC(=O)N1CC(NC(=O)c2cccc(C3Nc4ccc(C(=O)O)cc4CC3(C)C)c2)C1` (stereo not shown) [Example 207, 2-(3-(1-(Tert-butoxycarbonyl)azetidin-3-ylcarbamoyl)phenyl)-3,3-dimethyl-1,2,3,4-tetrahydroquinoline-6-carboxylic acid] showed an E30 of 1.32.

`CN1CC(NC(=O)c2cccc(C3Nc4ccc(C(=O)O)cc4CC3(C)C)c2)C1` (stereo not shown) [Example 208, 3,3-Dimethyl-2-(3-(1-methylazetidin-3-ylcarbamoyl)phenyl)-1,2,3,4-tetrahydroquinoline-6-carboxylic acid] registered an E30 of 1.3.

For the molecule `CC1(C)Cc2cc(C(=O)O)ccc2NC1c1ccc(F)c(NS(=O)(=O)c2ccccc2F)c1` (stereo not shown) [Example 209, 2-(4-Fluoro-3-(2-fluorophenylsulfonamido)phenyl)-,3-dimethyl-1,2,3,4-tetrahydroquinoline-6-carboxylic acid], the E30 is given as 1.28.

In turn, `CC1(C)Cc2cc(C(=O)O)ccc2NC1c1ccc(F)c(NC(=O)C2CCCCC2)c1` (stereo not shown) [Example 211, 2-(3-(Cyclohexanecarboxamido)-4-fluorophenyl)-3,3-dimethyl-1,2,3,4-tetrahydroquinoline-6-carboxylic acid] returned an E30 of 1.41.

In turn, `CC1(C)Cc2cc(C(=O)O)ccc2NC1c1ccc(NS(=O)(=O)c2cccc(F)c2)cc1` (stereo not shown) [Example 212, 2-(4-(3-Fluorophenylsulfonamido)phenyl)-3,3-dimethyl-1,2,3,4-tetrahydroquinoline-6-carboxylic acid] displayed an E30 of 1.28.

In turn, `CC1(C)Cc2cc(C(=O)O)ccc2NC1c1ccc(NS(=O)(=O)c2ccccc2F)cc1` (stereo not shown) [Example 213, 2-(4-(2-Fluorophenylsulfonamido)phenyl)-3,3-dimethyl-1,2,3,4-tetrahydroquinoline-6-carboxylic acid] showed an E30 of 1.27.
